Experiments:
[1] = system: intraocular pressure (IOP) in normotensive monkeys; assay: IOP after single topical ocular dosing of Compound A with or after latanoprost in conscious normotensive monkeys (Treatments 1-5); format: in vivo, cynomolgus monkeys (Macaca fascicularis); conditions: pre-clinical studies
Procedure: Compound A was administered in two different formulations: […]
The aqueous formulation comprised of the following: […]
The control in the first treatment was a 40 mcL composition of 0.8% sodium chloride (NaCl), 0.15% citrate, 0.01% benzalkonium chloride, 0.3% polysorbate 80, and 0.7% sodium (Na) carboxymethylcellulose.
In the third treatment, 10 monkeys received latanoprost (Xalatan™) dosed via 2 drops at 15 mcL apart (at a concentration of 50 mcg/mL) for a total dose of 1.5 mcg in one study eye and 2 drops of saline vehicle in the contralateral eye. This treatment was performed at two separate times with a sufficient washout between treatments. The IOPs of both the study eye and contralateral eye were measured repeatedly using a calibrated pneumotonometer following an application of a topical anesthetic (proparacaine).
In the fourth treatment, 10 monkeys received latanoprost (Xalatan™) topically dosed via 2 drops at 15 mcL apart (at a concentration of 50 mcg/mL) for a total dose of 1.5 mcg in one study eye and saline in the contralateral eye. […] The intraocular pressures (IOP) of both the study eye and contralateral eye were measured repeatedly using a calibrated pneumotonometer following an application of a topical anesthetic (proparacaine). […]

[2] = system: intraocular pressure (IOP) in normotensive monkeys; assay: Multidose study: twice-daily topical Compound A suspension with once daily topical latanoprost, IOP in conscious monkeys; format: in vivo, cynomolgus monkeys (Macaca fascicularis)
Procedure: Ten female, ocular normotensive cynomolgus monkeys (Macaca fascicularis), aged 3 to 4 years old at initiation of treatment, were acclimated to ocular topical dosing and repeated IOP measurements using a pneumatonometer (Model 30 Classic) without general anesthesia or sedation (conscious) and dosed as indicated in Table 1.
Intraocular pressure was measured from both eyes (three readings/eye/time interval with mean values represented in the data tables) beginning approximately 1 hour predose, at Time 0 (just prior to dosing), and after dosing at various time intervals. Mean IOP values and the percent change in IOP levels from the baseline level were calculated. The FIGS. 5 and 6 show summarized data from this phase of the study of the combined IOP mean values of treatments and standard deviation of the mean for the control. The control plot includes the combined mean values of all treatments (BSS alone and BSS in combination with Placebo). The mean IOP levels in the control eye ranged from 21 to 22 mmHg.

[3] = Compound A 65 μg/dose BID plus latanoprost 1.5 μg QD, right eye

SMILES: O=[N+]([O-])OC[C@H]1O[C@@H](n2cnc3c(NC4CCCC4)ncnc32)[C@H](O)[C@@H]1O [Compound A, ((2R,3S,4R,5R)-5-(6-(cyclopentylamino)-9H-purin-9-yl)-3,4-dihydroxytetrahydrofuran-2-yl)methyl nitrate]
- IOP reduction by the combination of Compound A and latanoprost [1]: significant IOP reduction
- reduction in IOP compared with latanoprost alone ([2]; Compound A 65 μg/dose BID (130 μg/day) suspension plus latanoprost 1.5 μg QD, right eye, 1 hour after each Compound A dose (Time 0 and 5 hours)): greater reduction in IOP
- IOP reduction at peak trough after the first daily dose [2, 3]: approximately 12%
- IOP reduction at peak trough after the second daily dose [2, 3]: ~17%

SMILES: CC(C)OC(=O)CCC/C=C\C[C@@H]1[C@@H](CC[C@@H](O)CCc2ccccc2)[C@H](O)C[C@@H]1O [latanoprost, isopropyl-(Z)-7[(1R,2R,3R,5S)3,5-dihydroxy-2-[(3R)-3-hydroxy-5-phenylpentyl]cyclopentyl]-5-heptenoate, reference compound]
- reduction from the mean IOP baseline levels ([2]; latanoprost alone 1.5 μg/dose once daily topical, right eye, at peak trough): approximately 13%
- reduction of mean IOP levels at peak trough ([2]; latanoprost alone 1.5 μg/dose once daily topical, right eye, repeated dosing, n=10): about 2 mm Hg
- IOP of treated eyes versus control eyes ([2]; latanoprost alone, after repeated treatments for two weeks, including pre-dose times): slightly lower than that of the control eyes
